pIC50: −log10 of the molar value. Read-outs that look alike come from different tables or passages of the source.
Tests used:
[1] = tested on: human monocytic line U-937; assay type: cell-based
[2] = tested on: TNFrII; experiment: Tumor necrosis factor assay: TNF Receptor II ELISA on supernatant of PMA-stimulated U-937 cells; conditions: Homo sapiens, U-937, read-out: TNFRII Release IC50 in micromolar
[3] = biological target: T1, recombinant human MMP-1 (Homo sapiens, UniProt P03956); experiment: biochemical; conditions: Inhibition Table B
T1 construct: made in house; host or cells: transfected HT-1080 cells
T1 sequence (P03956 100-469): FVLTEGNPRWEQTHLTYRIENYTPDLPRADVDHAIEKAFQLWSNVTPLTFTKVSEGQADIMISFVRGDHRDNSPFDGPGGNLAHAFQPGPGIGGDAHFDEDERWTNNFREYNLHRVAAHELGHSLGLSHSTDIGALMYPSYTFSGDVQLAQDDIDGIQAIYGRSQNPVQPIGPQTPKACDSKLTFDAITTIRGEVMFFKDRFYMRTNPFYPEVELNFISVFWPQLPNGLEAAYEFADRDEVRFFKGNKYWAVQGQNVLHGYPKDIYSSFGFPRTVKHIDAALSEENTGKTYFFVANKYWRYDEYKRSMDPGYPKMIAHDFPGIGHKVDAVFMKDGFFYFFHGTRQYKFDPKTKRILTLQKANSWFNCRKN

[4] = biological target: recombinant human MMP-13 (Homo sapiens, UniProt P45452); experiment: biochemical; conditions: Inhibition Table B
[5] = biological target: T2, recombinant human MMP-2 (Homo sapiens, UniProt P08253); experiment: biochemical; conditions: Inhibition Table B
T2 sequence (P08253 110-660): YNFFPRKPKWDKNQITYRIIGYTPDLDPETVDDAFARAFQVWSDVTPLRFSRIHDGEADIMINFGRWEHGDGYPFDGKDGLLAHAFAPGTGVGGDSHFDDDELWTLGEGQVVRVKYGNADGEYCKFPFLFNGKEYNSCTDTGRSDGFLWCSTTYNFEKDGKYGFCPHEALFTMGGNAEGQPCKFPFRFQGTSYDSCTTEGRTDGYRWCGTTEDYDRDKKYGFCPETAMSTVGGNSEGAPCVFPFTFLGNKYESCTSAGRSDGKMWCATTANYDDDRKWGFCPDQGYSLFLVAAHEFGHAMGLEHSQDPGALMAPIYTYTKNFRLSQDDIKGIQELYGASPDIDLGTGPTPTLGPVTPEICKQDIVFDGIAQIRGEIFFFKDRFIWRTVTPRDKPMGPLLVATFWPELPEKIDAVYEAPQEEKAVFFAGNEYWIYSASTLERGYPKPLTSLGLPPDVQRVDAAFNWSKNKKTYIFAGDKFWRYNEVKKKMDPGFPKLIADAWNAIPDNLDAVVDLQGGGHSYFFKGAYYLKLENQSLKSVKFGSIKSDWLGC

SMILES: Cl.O=C(NO)C1(S(=O)(=O)c2ccc(Oc3ccccc3)cc2)CCNCC1 [Example 4, N-hydroxy-4-[(4-phenoxyphenyl)sulfonyl]-4-piperidinecarboxamide]
- MTS Toxicity TD50 [1]: >100 µM
- pIC50 [2]: < 4.00

SMILES: C#CCN1CCC(C(=O)NO)(S(=O)(=O)c2ccc(Oc3ccccc3)cc2)CC1.Cl [Example 6, N-hydroxy-4-[(4-phenoxyphenyl)sulfonyl]-1-(2-propynyl)-4-piperidinecarboxamide]
- MTS Toxicity TD50 [1]: >100 µM
- pIC50 [2]: < 4.00

SMILES: C#CCN1CCC(C(=O)NO)(S(=O)(=O)c2ccc(Sc3ccccc3)cc2)CC1.Cl [Example 9, N-hydroxy-4-([4-(phenylthio)phenyl]sulfonyl]-1-(2-propynyl)-4-piperidinecarboxamide]
- MTS Toxicity TD50 [1]: >100 µM
- pIC50 [2]: < 4.00

SMILES: C#CCN1CCC(C(=O)NO)(S(=O)(=O)c2ccc(Oc3ccc4c(c3)OCO4)cc2)CC1.Cl [Example 10, 4-[[4-(1,3-benzodioxol-5-yloxy)phenyl]sulfonyl]-N-hydroxy-1-(2-propynyl)-4-piperidinecarboxamide]
- MTS Toxicity TD50 [1]: >100 µM
- pIC50 [2]: < 4.00

SMILES: C#CCN1CCC(C(=O)NO)(S(=O)(=O)c2ccc(SC3CCCCC3)cc2)CC1.Cl [Example 13, 4-[[4-(cyclohexylthio)-phenyl]sulfonyl]-N-hydroxy-1-(2-propynyl)-4-piperidinecarboxamide]
- MTS Toxicity TD50 [1]: >100 µM
- pIC50 [2]: < 4.00

SMILES: Cl.O=C(NO)C1(S(=O)(=O)c2ccc(Sc3ccc(F)cc3)cc2)CCN(C2CC2)CC1 [Example 27, 1-cyclopropyl-4-[[4-[(4-fluorophenyl)thio]phenyl]sulfonyl]-N-hydroxy-4-piperidinecarboxamide]
- MTS Toxicity TD50 [1]: 100 µM
- pIC50 [2]: < 4.00

SMILES: COCCN1CCC(C(=O)NO)(S(=O)(=O)c2ccc(Sc3ccccc3)cc2)CC1.Cl [Example 35, N-hydroxy-1-(2-methoxyethyl)-4-[[4-(phenylthio)phenyl]-sulfonyl]-4-piperidinecarboxamide, monohydrochloride]
- MTS Toxicity TD50 [1]: >100 µM
- pIC50 [2]: < 4.00

SMILES: O=C(NO)C1(S(=O)(=O)c2ccc(Oc3ccc(OC(F)(F)F)cc3)cc2)CCOCC1 [Example 69]
- MTS Toxicity TD50 [1]: 100 µM
- pIC50 [2]: < 4.00
- Blood Level @ 3 min (rat, in vivo, 20 mg/kg): 44000 ng/mL
- BA (rat, in vivo, po, 20 mg/kg): 35.9%
- Blood Level @ 6 hr (rat, in vivo, po, 20 mg/kg): 1172 ng/mL

SMILES: Cc1cc(Oc2ccc(S(=O)(=O)C3(C(=O)NO)CCNCC3)cc2)ccc1Cl.Cl [Example 79, 4-[[4-(4-chloro-3-methylphenoxy)phenyl]sulfonyl]-N-hydroxy-4-piperidinecarboxamide, monohydrochloride]
- pIC50 [3]: < 5.00
- AUC (0-∞) (Rat Intraveneous, 20 mpk): 6110 ng·h/mL
- t1/2 (Rat Intraveneous, 20 mpk): 1.82 h
- Blood Level @ 3 min (Rat Intraveneous, 20 mpk, 3 min): 13990 ng/mL
- AUC (0-6 hr) (Rat Oral, 20 mpk): 70 ng·h/mL
- BA (Rat Oral, 20 mpk): 1.1%
- Cmax (Rat Oral, 20 mpk): 20 ng/mL
- Blood Level @ 6 hr (Rat Oral, 20 mpk, 6 hr): 10 ng/mL
- pIC50 [4]: 8.77
- pIC50 [5]: 9.00

SMILES: O=C(NO)C1(S(=O)(=O)c2ccc(Sc3ccccc3)cc2)CCOCC1 [Example 95, Tetrahydro-N-hydroxy-4-[[4-(phenylthio)phenyl]sulfonyl]-2H-pyran-4-carboxamide]
- MTS Toxicity TD50 [1]: >100 µM
- pIC50 [2]: < 4.00
- t1/2 (Rat Intraveneous, 20 mpk): 1.06 h

SMILES: O=C(NO)C1(S(=O)(=O)c2ccc(Oc3ccc(C(F)(F)F)cc3)cc2)CCOCC1 [Example 379]
- MTS Toxicity TD50 [1]: 80 µM
- pIC50 [2]: < 4.00
- t1/2 (Rat Intraveneous, 20 mpk): 1.74 h

SMILES: COCCN1CCC(C(=O)NO)(S(=O)(=O)c2ccc(Oc3ccc(C(F)(F)F)cc3)cc2)CC1.Cl [Example 418, N-hydroxy-1-(2-methoxyethyl)-4-[[4-[4-(trifluoromethyl)-phenoxy]phenyl]sulfonyl}-4-piperidinecarboxamide, monohydrochloride]
- t1/2 (Rat Intraveneous, 20 mpk): 2.42 h

SMILES: Cl.O=C(NO)C1(S(=O)(=O)c2ccc(Oc3ccc4c(c3)OCO4)cc2)CCN(C2CC2)CC1 [Example 421, 4-[[4-(1,3-benzodioxol-5-yloxy)phenyl]sulfonyl]-1-cyclopropyl-N-hydroxy-4-piperidinecarboxamide, monohydrochloride]
- Blood Level @ 6 hr (rat, in vivo, po, 20 mg/kg): 206 ng/mL

SMILES: Cl.O=C(NO)C1(S(=O)(=O)c2ccc(Oc3ccc(C(F)(F)F)cc3)cc2)CCN(C2CC2)CC1 [Example 427, 1-cyclopropyl-N-hydroxy-4-[[4-[4-(trifluoromethyl)phenoxy]phenyl]sulfonyl]-4-piperidinecarboxamide, monohydrochloride]
- t1/2 (Rat Intraveneous, 20 mpk): 2.85 h

SMILES: CCN1CCC(C(=O)NO)(S(=O)(=O)c2ccc(OCc3ccc(C(F)(F)F)cc3)cc2)CC1.Cl [Example 438, 1-ethyl-N-hydroxy-4-[(4-[[4-[trifluoromethyl)phenyl]methoxy]-phenyl]sulfonyl]-4-piperidine-carboxamide, monohydrochloride]
- t1/2 (Rat Intraveneous, 20 mpk): 2.14 h
